Where two headings read alike, the source gives them in different places.
Columns and labels:
[1] = system: WI-26VA4 human pulmonary fibroblast cells; test: In vitro cytotoxicity, MTT assay; format: cell-based; conditions: for SI (selectivity index): SI = LD50 Cell / IC50 P. falciparum, WI-26VA4 vs W2; for LD50 ± SD (lethal drug concentration that reduced WI-26VA4 cells viability in 50%): WI-26VA4 human pulmonary fibroblast cells, MTT, 24 hours, mean and SD of triplicate experiments
Method: The cells were washed with culture medium, trypsinized, distributed in a flat-bottomed 96-well plate (5×10^3 cells/well), and incubated for 18 hours at 37 °C for cell adherence. The compounds (20 μL) were diluted in different concentrations ranging from 0.2 - 200 μg/mL and incubated with the cells for 24 hours in a 5% CO2 atmosphere at 37 °C.
A 3-(4,5-dimethylthiazol-2-yl)-2,5-diphenyltetrazolium bromide (MTT) solution (5 mg/mL; 20 μL/well) was added to evaluate mitochondrial viability; after a further 3 hours incubation, the supernatants were carefully removed, 100 μL of DMSO was added to each well, and the reactions were mixed to solubilize the formazan crystals. […] The cell viability was expressed as a percentage of the control absorbance in the untreated cells after subtracting the appropriate background.
A selectivity index (SI) corresponding to the ratio between the cytotoxic and antiplasmodial activities of each compound tested. The values greater than 10 were considered indicative of lack of toxicity, whereas the substances with values below 10 were considered toxic. The SI index was calculated as follow:
SI=LD50 Cell/IC50 P.falciparum
(§1) The coefficients of regression of these curves were calculated using the method of least squares. The LD50 were determined based on the equation of the curve obtained by plotting the % of cellular death versus the concentration of compound (GraphPad Prism Software, version 5.0 for Windows, San Diego, California, USA). The average IC50 and LD50 were compared using ANOVA. Statistical significance was defined at the 5% level (P<0.05).

[2] = system: P. falciparum W2 strain (chloroquine resistant); test: In vitro antiplasmodial activity; format: cell-based, Plasmodium falciparum; conditions: read-out: IC50 ± SD (drug concentration that reduced parasite viability in 50%)
Description: P. falciparum continuous culture was maintained as previously described with minor modifications. […] The parasites at early stages were synchronized at ring stage by sorbitol treatment. Initial parasitemia was adjusted to 0.5% with 2% hematocrit in all experiments.
In vitro antiplasmodial activity of the bufadienolides (compounds dehydrobufotenin, marinobufotoxin, marinobufagin and bufalin) was done in 96 well plates. The growth inhibition of intraerythrocytic forms and parasite morphology in culture was assessed by microscopic observation of the Giemsa-stained thin blood films. Ring stage parasites (0.5% parasitemia and 2% hematocrit) were added to each well of 96-well microculture plates. The compounds (dehydrobufotenin, marinobufotoxin, marinobufagin and bufalin) were dissolved in DMSO and diluted to concentrations ranging from 0.78 to 100 μg/mL using complete medium and stored a 4 °C. After incubation at 37 °C for 48 hours, P. falciparum growth inhibition was assessed in Giemsa-stained smears by observing 5,000 erythrocytes per 1 thin blood film in triplicate. The culture medium was replaced with fresh medium with or without test samples/control drugs. […] All experiments were performed in triplicate.
as §1

[3] = Plasmodium falciparum, W2, 48 h

SMILES | SI (selectivity index) [1] | LD50 ± SD (lethal drug concentration that reduced WI-26VA4 cells viability in 50%) [1] [µM] | LD50 ± SD (lethal drug concentration that reduced WI-26VA4 cells viability in 50%) ([1]; listed as marinobufagin) [µM] | IC50 [2, 3] [µM] | LD50 ± SD (lethal drug concentration that reduced WI-26VA4 cells viability in 50%) ([1]; listed as bufalin) [µM] | IC50 ([2]; P. falciparum W2 (chloroquine-resistant), 48 hours, Giemsa-stained smears, mean and SD of triplicate experiments) [µM] | SI (selectivity index) ([1]; listed as dehydrobufotenin) | LD50 ± SD (lethal drug concentration that reduced WI-26VA4 cells viability in 50%) ([1]; listed as dehydrobufotenin) [µM] | LD50 ± SD (lethal drug concentration that reduced WI-26VA4 cells viability in 50%) ([1]; listed as marinobufotoxin) [µM]
CC12CCC(O)CC1(O)CCC1C2CCC2(C)C(c3ccc(=O)oc3)CC3OC312 (stereo not drawn) [Marinobufagin] | 0.78 | 3.04 ± 0.25 | 3.04 | 3.89 ± 0.42 | – | – | – | – | –
C[C@]12CC[C@H](O)C[C@H]1CC[C@@H]1[C@@H]2CC[C@]2(C)[C@@H](c3ccc(=O)oc3)CC[C@]12O [Bufalin] | 7.52 | 25.9 ± 7.04 | – | – | 25.9 | 3.44 ± 0.43 | – | – | –
C[N+]1(C)CCc2c[nH]c3ccc(O)c1c23 [Dehydrobufotenine, Dehydrobufotenin] | 12.33 | 235.76 ± 4.03 | – | 19.1 ± 0.2 | – | – | > 10 | 235.76 | –
CCN(CC)CCCC(C)Nc1ccnc2cc(Cl)ccc12 (stereo not drawn) [Chloroquine (CQ), Chloroquine, reference compound] | – | – | – | 1.04 ± 0.21 | – | – | – | – | –
CC12CCC(OC(=O)CCCCCCC(=O)NC(CCCNC(=N)N)C(=O)O)CC1(O)CCC1C2CCC2(C)C(c3ccc(=O)oc3)CC3OC312 (stereo not drawn) [Marinobufotoxin, 3-(N-suberoylargininyl) marinobufagin] | 1.67 | 8.89 ± 2.66 | – | 5.31 ± 0.25 | – | – | – | – | 8.89

From publication PMC7812938, “Dehydrobufotenin extracted from the Amazonian toad Rhinella marina (Anura: Bufonidae) as a prototype molecule for the development of antiplasmodial drugs” (The Journal of Venomous Animals and Toxins Including …, 2021)
